The subject of assay [1] is DLD1 NRF2-WT. Conditions: 72 h; CellTiter-Glo viability. The method, boiled down:
(§1)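 DLD1 colorectal cancer cells, an isogenic pair either NRF2 wild-type or carrying a CRISPR gain-of-function, were cultured in DMEM with 10% FBS and treated in 384-well plates with library compounds at 5 concentrations across a 10,000-fold range. CellTiter-Glo viability was read on a Pherastar FS reader after 72 h and normalised to vehicle wells and 100-μM positive-control wells. Four-parameter logistic dose-response fits were applied. EC50 and drug sensitivity score, a normalised area under the curve, were taken from these fits.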
(In general: Cellular ATP, detected with luciferase, serves as a proxy for viable cell number.)

Assay [2] has as its system DLD1 NRF2-GOF. Description: TC50 cytotoxicity; higher = less toxic. Conditions: 72 h; CellTox Green cytotoxicity. The method, boiled down: (§2)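 After growth in DMEM with 10% FBS, NRF2 wild-type and CRISPR-edited isogenic DLD1 cells were seeded in 384-well plates and given library compounds at 5 concentrations across a 10,000-fold range. Fluorescence from CellTox Green was taken on a Pherastar FS reader after 72 h and normalised against vehicle wells and 100-μM positive-control wells. From logistic dose-response fits of cytotoxicity came the TC50 and the drug sensitivity score, a normalised area under the curve.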

Assay [3] relates to DLD1 NRF2-WT. Briefly: TC50 cytotoxicity; higher = less toxic. The conditions noted are these: 72 h; CellTox Green cytotoxicity. The procedure, abridged: as §2
The test system of assay [4] is DLD1 NRF2-GOF. Briefly: drug sensitivity score (DSS) cytotoxicity (DSS score); higher = more toxic; extreme values may be limits of the assay. Conditions: 72 h; CellTox Green cytotoxicity. The procedure, abridged:
as §2

For assay [5], the system named is DLD1 NRF2-WT. The description is as above. Conditions: 72 h; CellTox Green cytotoxicity. The method, boiled down:
as §2

Assay [6] concerns DLD1 NRF2-WT. Briefly: drug sensitivity score (DSS) viability (DSS score); higher = more sensitive; extreme values may be limits of the assay. Conditions: 72 h; CellTiter-Glo viability. The method, boiled down:
as §1

A value given as a limit tells only on which side of the number the result lay.

This passage reports EC50 viability, TC50 cytotoxicity and drug sensitivity score results from the supplement of paper PMC7600603.

`CC(C)NC[C@@H](C(=O)N1CCN(c2ncnc3c2[C@H](C)C[C@H]3O)CC1)c1ccc(Cl)cc1` [Ipatasertib]: the EC50 viability in the assay on DLD1 NRF2-WT [1] is greater than 10 µM. Besides, the TC50 cytotoxicity in the assay on DLD1 NRF2-GOF [2] and in the assay on DLD1 NRF2-WT [3] was greater than 10 µM each time. For the same compound, the drug sensitivity score with DLD1 NRF2-GOF [4] stood at 0; with DLD1 NRF2-WT [5], 0; in the assay with DLD1 NRF2-WT [6], 1.3.
As for `CC(C)n1cnc2c(NCCc3ccc(O)cc3)nc(-c3csc4ccccc34)nc21` [StemRegenin 1], in the assay with DLD1 NRF2-WT [1], the EC50 viability came to 0.855 µM. Moreover, the drug sensitivity score in the assay with DLD1 NRF2-WT [6] was found to be 3.9.
The compound `CC(C)c1c(C(=O)Nc2ccccc2)c(-c2ccccc2)c(-c2ccc(F)cc2)n1CC[C@@H](O)C[C@@H](O)CC(=O)O` [Atorvastatin] showed an EC50 viability with DLD1 NRF2-WT [1] of 3.75 µM. Besides, in the assay with DLD1 NRF2-WT [6], the drug sensitivity score is 2.5.
In the assay on DLD1 NRF2-WT [1], `CC[C@@H]1C(=O)N(C)c2cnc(Nc3ccc(C(=O)NC4CCN(C)CC4)cc3OC)nc2N1C1CCCC1` [BI 2536] came in with an EC50 viability of 0.0052 µM. The compound also had a TC50 cytotoxicity with DLD1 NRF2-WT [3] of 0.188 µM. Besides, the figures for the drug sensitivity score in the assay with DLD1 NRF2-GOF [4], in the assay on DLD1 NRF2-WT [5] and with DLD1 NRF2-WT [6] were 2.3, 3.1 and 21.8, respectively.
As for `N#Cc1ccc(COC[C@H]2O[C@@H](n3c(NCc4ccc(Cl)c(Cl)c4)nc4c(N)ncnc43)[C@H](O)[C@@H]2O)cc1`, the TC50 cytotoxicity in the assay with DLD1 NRF2-GOF [2] and with DLD1 NRF2-WT [3] was greater than 10 µM throughout. Besides, the figures for the drug sensitivity score with DLD1 NRF2-GOF [4], with DLD1 NRF2-WT [5] and with DLD1 NRF2-WT [6] were 0, 0 and 3.2, respectively.
Regarding `CC(C)N(CCCNC(=O)Nc1ccc(C(C)(C)C)cc1)C[C@H]1O[C@@H](n2cc(Br)c3c(N)ncnc32)[C@H](O)[C@@H]1O` [SGC0946], the TC50 cytotoxicity in the assay with DLD1 NRF2-GOF [2] and in the assay on DLD1 NRF2-WT [3] was greater than 10 µM in each case. Besides, the values for the drug sensitivity score in the assay with DLD1 NRF2-GOF [4], in the assay on DLD1 NRF2-WT [5] and in the assay on DLD1 NRF2-WT [6] were 0, 0 and 0.9, respectively.
As to `O=C(c1ccc(F)c(F)c1Nc1ccc(I)cc1F)N1CC(O)([C@@H]2CCCCN2)C1` [Cobimetinib], the EC50 viability in the assay on DLD1 NRF2-WT [1] came out at 0.207 µM. The compound further displayed a drug sensitivity score in the assay on DLD1 NRF2-WT [6] of 3.
With `CN1CCN(c2ccc(C(=O)Nc3n[nH]c4ccc(Cc5cc(F)cc(F)c5)cc34)c(NC3CCOCC3)c2)CC1` [Entrectinib], the TC50 cytotoxicity in the assay with DLD1 NRF2-GOF [2] and with DLD1 NRF2-WT [3] was greater than 1 µM in each case. The drug sensitivity score with DLD1 NRF2-GOF [4] and in the assay with DLD1 NRF2-WT [5] was 0 in each case.
Take `Nc1nc(OCc2cc(Br)cs2)c2[nH]cnc2n1` [Lomeguatrib]: the TC50 cytotoxicity in the assay with DLD1 NRF2-GOF [2] and in the assay on DLD1 NRF2-WT [3] was greater than 10 µM each time. Also, the drug sensitivity score with DLD1 NRF2-GOF [4] and in the assay on DLD1 NRF2-WT [5] was 0 throughout.
Regarding `CCCOc1ccn2c(C(C)=O)cc(-c3ccccc3S(C)(=O)=O)c2c1` [GSK2801], the TC50 cytotoxicity in the assay with DLD1 NRF2-GOF [2] and in the assay on DLD1 NRF2-WT [3] was greater than 10 µM throughout. Besides, the drug sensitivity score with DLD1 NRF2-GOF [4] and with DLD1 NRF2-WT [5] was 0 in each case.
Take `CO[C@H]1C[C@@H]2CC[C@@H](C)[C@@](O)(O2)C(=O)C(=O)N2CCCC[C@H]2C(=O)O[C@H]([C@H](C)C[C@@H]2CC[C@@H](O)[C@H](OC)C2)CC(=O)[C@H](C)/C=C(\C)[C@@H](O)[C@@H](OC)C(=O)[C@H](C)C[C@H](C)/C=C/C=C/C=C/1C` [Sirolimus]: in the assay on DLD1 NRF2-WT [6], the drug sensitivity score came out at 3.1.
On to `COC(=O)c1ccc2c(c1)[nH]c1ncnc(NCCCN3CCCCC3)c12` [UM729], for which the TC50 cytotoxicity with DLD1 NRF2-GOF [2] and in the assay on DLD1 NRF2-WT [3] was greater than 10 µM in each case. The drug sensitivity score in the assay with DLD1 NRF2-GOF [4] and in the assay on DLD1 NRF2-WT [5] was 0 each time.
For the compound `Cc1cc(-c2ncc(CC(=O)Nc3ccc(-c4cnccn4)cn3)cc2C)ccn1` [NVP-LGK974], the TC50 cytotoxicity in the assay on DLD1 NRF2-GOF [2] and in the assay with DLD1 NRF2-WT [3] was greater than 10 µM throughout. The drug sensitivity score with DLD1 NRF2-GOF [4] and in the assay with DLD1 NRF2-WT [5] was 0 throughout.
As to `NS(=O)(=O)OC[C@@H]1C[C@@H](n2ccc3c(N[C@H]4CCc5ccccc54)ncnc32)C[C@@H]1O` [Pevonedistat], the TC50 cytotoxicity with DLD1 NRF2-GOF [2] and in the assay with DLD1 NRF2-WT [3] was greater than 10 µM in each case. The drug sensitivity score in the assay with DLD1 NRF2-GOF [4] and with DLD1 NRF2-WT [5] was 0 each time.
As for `Oc1nc(-c2ccc(C(F)(F)F)cc2)nc2c1CSCC2` [XAV-939], the TC50 cytotoxicity in the assay with DLD1 NRF2-GOF [2] and in the assay on DLD1 NRF2-WT [3] was greater than 10 µM in each case. The drug sensitivity score in the assay with DLD1 NRF2-GOF [4] and in the assay on DLD1 NRF2-WT [5] was 0 throughout.
`Cc1ccc(-c2cc(C(F)(F)F)nn2-c2ccc(S(N)(=O)=O)cc2)cc1` [Celecoxib]: the TC50 cytotoxicity in the assay with DLD1 NRF2-GOF [2] and with DLD1 NRF2-WT [3] was greater than 10 µM each time. Further, the drug sensitivity score with DLD1 NRF2-GOF [4] and in the assay on DLD1 NRF2-WT [5] was 0 throughout.
On to `N#Cc1ccc2[nH]c(O)c(-c3ccc(CN4CCOCC4)cn3)c2c1` [AZD-1080], for which the TC50 cytotoxicity with DLD1 NRF2-GOF [2] and with DLD1 NRF2-WT [3] was greater than 10 µM each time. Further, the drug sensitivity score in the assay on DLD1 NRF2-GOF [4] and with DLD1 NRF2-WT [5] was 0 in each case.
`CCCCCOC(=O)Nc1nc(=O)n([C@@H]2O[C@H](C)[C@@H](O)[C@H]2O)cc1F` [Capecitabine]: the TC50 cytotoxicity in the assay on DLD1 NRF2-GOF [2] and in the assay on DLD1 NRF2-WT [3] was greater than 10 µM throughout. Further, the drug sensitivity score in the assay with DLD1 NRF2-GOF [4] and with DLD1 NRF2-WT [5] was 0 throughout.
As to `Cc1cc(OCc2nnc(SC3CCCC3)n2-c2cccnc2)ccc1-c1ccc(S(C)(=O)=O)cc1` [NMS-873], the EC50 viability in the assay with DLD1 NRF2-WT [1] is 0.273 µM. This compound came in with a drug sensitivity score in the assay with DLD1 NRF2-WT [6] of 5.5.
Take `NC(=O)/C(=C/n1cnc(-c2cc(C(F)(F)F)cc(C(F)(F)F)c2)n1)c1cncnc1` [KPT-8602]: the TC50 cytotoxicity with DLD1 NRF2-GOF [2] and with DLD1 NRF2-WT [3] was greater than 10 µM each time. The drug sensitivity score in the assay on DLD1 NRF2-GOF [4] and with DLD1 NRF2-WT [5] was 0 throughout.
Take `COc1cc2c(NC3CCN(C(C)C)CC3)nc(N3CCC(F)(F)CC3)nc2cc1OCCCN1CCCC1` [UNC0642]: the TC50 cytotoxicity with DLD1 NRF2-GOF [2] and with DLD1 NRF2-WT [3] was greater than 10 µM throughout. The values for the drug sensitivity score in the assay on DLD1 NRF2-GOF [4] and with DLD1 NRF2-WT [5] were 0.1 and 0, respectively.
On to `C[C@@H]1CN(Cc2ccc(F)cc2)[C@@H](C)CN1C(=O)c1cc2c(C(=O)C(=O)N(C)C)cn(C)c2cc1Cl` [Talmapimod], for which the TC50 cytotoxicity with DLD1 NRF2-GOF [2] and in the assay with DLD1 NRF2-WT [3] was greater than 10 µM each time. The drug sensitivity score with DLD1 NRF2-GOF [4] and in the assay on DLD1 NRF2-WT [5] was 0 in each case.
Turning to `Cn1cc(CNCC2CCN(c3ncc(C(=O)NO)cn3)CC2)c2ccccc21` [Quisinostat], the TC50 cytotoxicity in the assay on DLD1 NRF2-GOF [2] was greater than 1 µM; with DLD1 NRF2-WT [3], 0.135 µM. Further, the figures for the drug sensitivity score in the assay with DLD1 NRF2-GOF [4] and with DLD1 NRF2-WT [5] were 0 and 5.1, respectively.
`CCS(=O)(=O)N1CC(CC#N)(n2cc(-c3ncnc4[nH]ccc34)cn2)C1` [Baricitinib]: the TC50 cytotoxicity in the assay on DLD1 NRF2-GOF [2] and with DLD1 NRF2-WT [3] was greater than 2.5 µM throughout. Besides, the drug sensitivity score in the assay with DLD1 NRF2-GOF [4] and with DLD1 NRF2-WT [5] was 0 each time.
Consider `Cc1c(C(=O)Nc2ccc(N3C[C@@H](C)O[C@@H](C)C3)nc2)cccc1-c1ccc(OC(F)(F)F)cc1` [Sonidegib], for which the TC50 cytotoxicity in the assay with DLD1 NRF2-GOF [2] and with DLD1 NRF2-WT [3] was greater than 10 µM throughout. Besides, the drug sensitivity score in the assay on DLD1 NRF2-GOF [4] and in the assay on DLD1 NRF2-WT [5] was 0 in each case.
`CNS(=O)(=O)Nc1nccc(Cc2c(C)c3ccc(Oc4ncccn4)cc3oc2=O)c1F`: the TC50 cytotoxicity in the assay with DLD1 NRF2-GOF [2] and in the assay with DLD1 NRF2-WT [3] was greater than 1 µM each time. Also, the drug sensitivity score in the assay on DLD1 NRF2-GOF [4] and in the assay with DLD1 NRF2-WT [5] was 0 each time.
Consider `CN(C)CCCOc1ccc(-c2ccc3ncc4c(c3c2)n(C2CCOCC2)c(=O)n4C)cn1` [AZD0156], for which the TC50 cytotoxicity in the assay with DLD1 NRF2-GOF [2] and with DLD1 NRF2-WT [3] was greater than 1 µM throughout. Besides, the drug sensitivity score in the assay on DLD1 NRF2-GOF [4] and in the assay on DLD1 NRF2-WT [5] was 0 each time.
